Eleven compounds from ChEMBL document CHEMBL1136422, “Synthesis, in vitro, and in vivo evaluation of phosphate ester derivatives of combretastatin A-4” (Bioorg Med Chem Lett, 2003) can be followed below.

In assay [1] the test system is Mus musculus. Kind of assay: Vascular shutdown expressed as vessel density decrease in percent of the control at the dose of 100 mg/kg. It is filed as functional.
A short description of assay [2]: In vitro cytotoxicity evaluated in mouse heart endotheliaoma cell (MHEC5-T) after incubation of the cells for 1 hr. It is filed as functional, cell-based.
Assay [3] can be described thus: In vitro cytotoxicity evaluated in mouse heart endotheliaoma cell (MHEC5-T) after incubation of the cells for 5 days. The format is functional, cell-based. Particulars: 120 h.
The test system of assay [4] is HT-29. Kind of assay: Cytotoxicity evaluated against colon cancer cell line (HT-29). The following applies: Homo sapiens. It is filed as functional, cell-based.

Some results are limits rather than exact numbers.

Consider `COc1ccc(/C=C\c2cc(OC)c(OC)c(OC)c2)cc1OP(=O)([O-])Oc1cc(/C=C\c2cc(OC)c(OC)c(OC)c2)ccc1OC.[Na+]`, for which the “Vessel density decrease vs control” value in assay [1] is 0%. Besides, the values for the IC50 in assay [2] and in assay [3] were > 25000 nM and 510 nM, respectively.
For the compound `COc1ccc(/C=C\c2cc(OC)c(OC)c(OC)c2)cc1OP(=O)(O)OC1CCCCC1.N`, the “Vessel density decrease vs control” value in assay [1] was determined as 0%. The half-inhibitory concentration (IC50) in assay [2] is > 25000 nM; in assay [3], 3000 nM.
As to `CCCCCCCCOP(=O)(O)Oc1cc(/C=C\c2cc(OC)c(OC)c(OC)c2)ccc1OC.N`, the “Vessel density decrease vs control” value in assay [1] turned out to be 89%. The IC50 was found to be 25000 nM in assay [2] and 70 nM in assay [3].
On the same counts, the results for `COc1ccc(/C=C\c2cc(OC)c(OC)c(OC)c2)cc1OP(=O)(O)OCC(F)(F)F.N` are 0%, 10000 nM and 60 nM.
For `COc1ccc(/C=C\c2cc(OC)c(OC)c(OC)c2)cc1OP(=O)(OC)OC`, the “Vessel density decrease vs control” value in assay [1] is 20%. In addition, the IC50 was determined as 35000 nM in assay [2] and 130 nM in assay [3].
For `CCCCOP(=O)(OCCCC)Oc1cc(/C=C\c2cc(OC)c(OC)c(OC)c2)ccc1OC`, in that order: 0%, 8000 nM and 260 nM.
For `COc1ccc(/C=C\c2cc(OC)c(OC)c(OC)c2)cc1OP(=O)(O)OC.N`, in that order: 0%, 38000 nM and 70 nM.
With `COc1ccc(/C=C\c2cc(OC)c(OC)c(OC)c2)cc1OP(=O)(O)Oc1cccc(Cl)c1.N`, the “Vessel density decrease vs control” value in assay [1] was determined as 90%. Also, the IC50 in assay [2] was > 25000 nM; in assay [3], 3000 nM.
On the same counts, the results for `COc1ccc(/C=C\c2cc(OC)c(OC)c(OC)c2)cc1OCCCS(=O)(=O)[O-].[Na+]` are 10%, > 25000 nM and > 25000 nM.
Consider `COc1ccc(/C=C\c2cc(OC)c(OC)c(OC)c2)cc1O` [COMBRETASTATIN A4], for which, in assay [1], the “Vessel density decrease vs control” value is reported as 71%. Further, the figures for the half-inhibitory concentration (IC50) in assay [2] and in assay [3] were 1050 nM and 4 nM, respectively.
With `COc1ccc(/C=C\c2cc(OC)c(OC)c(OC)c2)cc1OP(=O)([O-])[O-].[Na+].[Na+]` [FOSBRETABULIN DISODIUM], in assay [1], the “Vessel density decrease vs control” value is reported as 88%. The IC50 turned out to be 200 nM in assay [4], 800 nM in assay [2] and 2 nM in assay [3].

One may read the IC50 as the concentration that inhibits the measured activity by half. High values mean lower potency, low ones higher potency.
